Where two headings read alike, the source gives them in different places. Where a SMILES comes first, the peptide text is derived from it. [ ]: non-standard residue; d: D form. The star is where a group is joined. X1 = OC[C@H]1O[C@@H](O[C@H]2[C@H](O)[C@@H](O)[C@H](*)O[C@@H]2CO)[C@H](O)[C@@H](O)[C@H]1O; Nle = CCCC[C@H](N)C(=O)O
Legend:
[1] = PWR membrane partitioning into receptor-free egg phosphatidylcholine membranes; format: physicochemical
[2] = Time-locked brain microdialysis and blood sampling pharmacokinetics; conditions: for Brain Dialysate: AUC / Brain Dialysate: Cmax / Brain Dialysate: Tmax: 3 mg/kg IP, striatal microdialysis 0-60 min; for Brain Dialysate: AUC: TES2300 and TES2320 co-injected, estimated concentration by probe recovery; for Brain Dialysate: AUC / Brain Dialysate: Cmax: LC-MS/MS, mean ± SEM; for Brain Dialysate: Cmax: estimated by probe recovery
Description: (§1) Mice (PN56-70) were anesthetized with isoflurane (1%) mixed with medical grade oxygen (0.75 L/min). Two incisions were made: a 0.5 cm incision in between the scapulae and a 1-cm ventral neck incision right of midline. The right carotid artery was isolated, ligated cranially with 4-0 silk, and temporarily occluded at the caudal end of the vessel with a micro clamp. A small incision was made into the carotid artery and PE-10 tubing, preflushed with heparin/glycerol (500 IU/ml, 50:50) and connected to a 28-gauge PinPort^TM (PNP3F28; Instech, Plymouth Meeting, PA), was advanced toward the heart. The clamp was released, the caudal ligature secured the catheter, and the catheter was tunneled subcutaneously to the scapular incision. Both incisions were closed with staples. The mouse was immediately transferred to a stereotaxic frame to implant the microdialysis probe.
(§2) A midsagittal skull incision was followed by a craniotomy (AP +0.5 mm, ML +2.0 mm from bregma). The dura was removed and a microdialysis probe (CMA12, 8309664, 4 mm membrane, 100 kDa cutoff; HBio, Holliston, MA) was inserted into the striatum (DV −5.0 mm).
(§3) Microdialysis probes were primed with artificial cerebrospinal fluid aCSF (15 mM Tris HCl, 10 mM Tris base, 126 mM NaCl, 2.5 KCl, 1.2 mM NaH2PO4, 2mM Na2SO4, and adjusted pH to 7.4) containing 0.05% bovine serum albumin (BSA) at a rate of 1 μL/minute using a two channel dual syringe pump (Fusion 101A Syringe Pump; Chemyx, Stafford, TX) for one-hour and then placed into the striatum at the coordinates listed above for 30-minutes prior to collecting baseline dialysate. Using the other pump channel, the preservation solution containing 150 ng/mL DADLE ([D-Ala2, D-Leu5]-Enkephalin; 10% acetic acid in 0.05% BSA in aCSF as an internal standard) is combined with the dialysate immediately via a micro-Tee at a flow rate of 1 μL/min (Figure 2A.). […] Dialysate was collected at −10, +10, +20, +30, +40, +50, and +60 minutes. Blood was collected at −5, +1, +5, +15, +25, +35, +45, and +55 minutes to correspond to the midpoint of the dialysate fraction. To separate plasma from whole blood, each sample was collected in ethylenediamine tetraacetic acid capillary tubes (CT-CB300-K2EDTA; Sarstedt, Nümbrecht, Germany), inverted repeatedly for 30 seconds, and centrifuged for 5 minutes at 2,500 x g in a refrigerated centrifuge (Galaxy Mini Centrifuge; VWR, Radnor, PA).
(§4) Biological sample preparation: Plasma samples (20 µL) were mixed with 20 µL of an internal standard working solution containing 150 ng/mL (DADLE) in 10% acetic acid. To precipitate proteins in both plasma and dialysate, 120 µL of ice-cold methanol was added to the plasma mixture and the dialysate samples (20 µL, premixed with preservation solution). After vortexing for 30 seconds, samples were centrifuged at 8,000 x g for 10-minutes at 4°C. The supernatant was evaporated using a Savant Speedvac concentrator. Dialysate and plasma samples were reconstituted in 20 μL of diluent (5% methanol and 0.1% formic acid in nanopure water).
(§5) Liquid chromatography and mass spectrometry: Samples were injected into the Thermo Fisher Scientific UHPLC-MS/MS TSQ system. Separation was achieved on an ACQUITY UPLC HSS T3 C18 Column (100 Å, 1.8 µm, 2.1 × 100 mm) and VanGuard pre-column (HSS T3 1.8 μm, 2.1 × 5 mm) and a HyperSep Retain PEP trap column (2.1 × 10 mm) with the column temperature set at 40 °C. We used a water-acetonitrile gradient with a flow rate of 0.2 mL/min and a total run time of 25. The mobile phases used were A: 0.1% v/v formic acid in deionized water and B: 0.1% v/v formic acid in acetonitrile, with the following conditions: 0 to 1 min (2 %B diverted to waste), 1.0 to 1.2 min (5% B), 1.2 min to 6 min (15% B), 6 min to 11 min (30% B), 11 min to 12.5 min (95% B), 12.5 min to 18 min (95% B), 18 min to 18.5 min (5 %B) 18.5 min to 23.5 min (5% B), 23.5 min to 25 min (2 %B). Injection volumes of 10 µL for dialysate and 5 µL for the plasma sample were used.

[3] = in vivo; conditions: C57Bl/6J, mouse, ip, 3 mg/kg
Description: as §1, §2, §3, §4, §5

[4] = target: T1, human PAC1 receptor (Homo sapiens, UniProt P41586); assay: biochemical
T1 sequence (P41586 21-468): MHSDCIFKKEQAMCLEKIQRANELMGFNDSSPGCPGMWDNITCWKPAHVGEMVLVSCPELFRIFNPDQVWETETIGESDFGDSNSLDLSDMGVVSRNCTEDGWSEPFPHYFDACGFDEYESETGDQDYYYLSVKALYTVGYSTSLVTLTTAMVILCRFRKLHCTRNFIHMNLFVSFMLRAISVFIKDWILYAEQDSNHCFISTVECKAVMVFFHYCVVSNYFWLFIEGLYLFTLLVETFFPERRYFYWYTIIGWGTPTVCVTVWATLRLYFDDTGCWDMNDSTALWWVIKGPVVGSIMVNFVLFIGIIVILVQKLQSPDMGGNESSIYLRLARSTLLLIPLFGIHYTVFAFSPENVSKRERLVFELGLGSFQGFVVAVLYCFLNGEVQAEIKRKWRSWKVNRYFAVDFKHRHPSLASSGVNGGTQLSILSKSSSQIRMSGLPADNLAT
Description: Plasmon Waveguide Resonance (PWR) spectroscopy, an enhanced technology related to Surface Plasmon Resonance (SPR) is capable of monitoring molecular anisotropy and measuring mass and structural changes in real time along with molecular interactions with receptor in the lipid bilayer. PWR was utilized to quantify label-free ligand binding affinities. Intact cell membranes containing human PAC1 receptors (purified and isolated from CHO cells, as described below) were immobilized onto the silica surface of a PWR prism element.
The prism was integrated into a PWR spectrometer system (Mainline Scientific, Malvern, PA). […] Binding events, along with any associated conformational shifts in the receptor or lipid matrix, were directly monitored via the angular resonance shifts of parallel (p-polarized) and perpendicular (s-polarized) light.

[5] = system: LHb neurons; assay: LHb neuronal excitability, intrinsic properties, rebound bursting, Ih and M-currents in slices after in vivo treatment; parameters: species or system male C57BL/6 mice; conditions: for effect on mTBI-induced LHb hyperexcitability (APs on depolarization): vs mTBI+vehicle P<0.0001, 2-way ANOVA
[6] = system: male C57BL/6 mice, repetitive closed-head mTBI
[7] = system: VPAC1 receptors; conditions: cited from earlier work
[8] = C57Bl/6J mice, co-injected, n=4, SEM
[9] = C57Bl/6J mice, co-injected, n=4
[10] = C57Bl/6J, mouse, plasma, ip, 3 mg/kg, SEM
[11] = early intervention, 10 mg/kg i.p. x5
[12] = late intervention, single 10 mg/kg i.p.
[13] = C57Bl/6J mice, 3 mg/kg IP each, co-injected, 0-60 min, n=4, ratio paired t-test

Structure (SMILES): CCCC[C@H](NC(=O)[C@H](CCC(N)=O)NC(=O)[C@H](CCCCN)NC(=O)[C@H](CCCNC(=N)N)NC(=O)[C@H](Cc1ccc(O)cc1)NC(=O)[C@H](CCCNC(=N)N)NC(=O)[C@H](CO)NC(=O)[C@H](Cc1ccc(O)cc1)NC(=O)[C@H](CO)NC(=O)[C@H](CC(=O)O)NC(=O)[C@@H](NC(=O)[C@H](Cc1ccccc1)NC(=O)[C@@H](NC(=O)CNC(=O)[C@H](CC(=O)O)NC(=O)[C@H](CO)NC(=O)[C@@H](N)Cc1c[nH]cn1)[C@@H](C)CC)[C@@H](C)O)C(=O)N[C@@H](C)C(=O)N[C@H](C(=O)N[C@@H](CCCCN)C(=O)N[C@@H](CCCCN)C(=O)N[C@@H](Cc1ccc(O)cc1)C(=O)N[C@@H](CC(C)C)C(=O)N[C@@H](CO)C(N)=O)C(C)C [TES2300] (H-HSDGIFTDSYSRYRKQ[Nle]AVKKYLS-NH2; N-terminus assumed)
- affinity for PC bilayers relative to TES2320 ([1]; PWR, PC bilayers, unglycosylated variant vs TES2320): ten fold higher affinity
- Kd ([1]; as quoted in the pharmacokinetics section, membrane not specified, read-out: Kd, affinity for the membrane): 114 pM
- Brain Dialysate: AUC ([2]; C57Bl/6J mice, n=4, SEM): 703 ± 338 ng·min/mL
- Brain Dialysate: Cmax [2, 8]: 64 ± 21 ng/mL
- Brain Dialysate: Tmax [2, 9]: 8 min
- Kp ([2]; C57Bl/6J, mouse, brain dialysate / plasma, ip, 3 mg/kg): 0.513
- Tmax ([2]; C57Bl/6J, mouse, plasma, ip, 3 mg/kg): 4 min
- AUC(0-t) [2, 10]: 22.8 ng·h/mL
- Cmax [2, 10]: 106 ± 25 ng/mL
- half-life [2, 10]: 8 ± 4 min

Structure (SMILES): CCCC[C@H](NC(=O)[C@H](CCC(N)=O)NC(=O)[C@H](CCCCN)NC(=O)[C@H](CCCNC(=N)N)NC(=O)[C@H](Cc1ccc(O)cc1)NC(=O)[C@H](CCCNC(=N)N)NC(=O)[C@H](CO)NC(=O)[C@H](Cc1ccc(O)cc1)NC(=O)[C@H](CO)NC(=O)[C@H](CC(=O)O)NC(=O)[C@@H](NC(=O)[C@H](Cc1ccccc1)NC(=O)[C@@H](NC(=O)CNC(=O)[C@H](CC(=O)O)NC(=O)[C@H](CO)NC(=O)[C@@H](N)Cc1c[nH]cn1)[C@@H](C)CC)[C@@H](C)O)C(=O)N[C@@H](C)C(=O)N[C@H](C(=O)N[C@@H](CCCCN)C(=O)N[C@@H](CCCCN)C(=O)N[C@@H](Cc1ccc(O)cc1)C(=O)N[C@@H](CC(C)C)C(=O)N[C@@H](CO[C@@H]1O[C@H](CO)[C@@H](O[C@@H]2O[C@H](CO)[C@H](O)[C@H](O)[C@H]2O)[C@H](O)[C@H]1O)C(N)=O)C(C)C [TES2320] (H-HSDGIFTDSYSRYRKQ[Nle]AVKKYLS(X1)-NH2; N-terminus assumed)
- Tmax [3]: 10 min
- AUC(0-t) ([3]; SEM): 101 ng·h/mL
- Cmax ([3]; SEM): 313 ± 62 ng/mL
- half-life ([3]; SEM): 13 ± 6 min
- Kd [4]: 4.5 pM
- effect on mTBI-enhanced Ih currents in LHb neurons [5, 11]: insufficient to prevent this Ih enhancement
- effect on mTBI-reduced M-currents in LHb neurons [5, 11]: Neither early nor late TES2320 intervention in mTBI mice normalized this reduction
- effect on mTBI-induced LHb hyperexcitability (APs on depolarization) ([5]; early intervention, 10 mg/kg i.p. x5, n=85 cells/13 mice): normalized this hyperexcitability to sham levels
- effect on mTBI-induced hyperpolarization-induced rebound bursting ([5]; early intervention, 10 mg/kg i.p. x5, vs mTBI+vehicle p<0.01, 2-way ANOVA): normalize this mTBI-induced increase in rebound bursting
- effect on mTBI-induced hyperpolarization-induced rebound bursting [5, 12]: no effect
- effect on mTBI-reduced M-currents in LHb neurons [5, 12]: Neither early nor late TES2320 intervention in mTBI mice normalized this reduction
- effect on mTBI-induced LHb hyperexcitability (APs on depolarization) ([5]; late intervention, single 10 mg/kg i.p., n=31 cells/5 mice): normalized this hyperexcitability to sham levels
- fast afterhyperpolarization (fAHP) amplitude of LHb neurons ([5]; late intervention, single 10 mg/kg i.p., vs mTBI+vehicle p<0.05, one-way ANOVA): significantly diminished
- effect on mTBI-enhanced Ih currents in LHb neurons ([5]; late intervention, single 10 mg/kg i.p., vs sham+vehicle p<0.0001): exaggerated this effect
- Kd ([1]; PWR, receptor-free egg phosphatidylcholine (eggPC) control membranes, read-out: Kd, baseline membrane partitioning affinity): 1350 pM
- fold increase of AUC over TES2300 in the CSF (brain dialysate) [2, 13]: 1.43 fold
- fold increase of AUC over TES2300 in the plasma [2, 13]: 4.73 fold
- Brain Dialysate: AUC ([2]; C57Bl/6J mice, n=4, SEM): 1071 ± 574 ng·min/mL
- Brain Dialysate: Cmax [2, 8]: 74 ± 22 ng/mL
- Brain Dialysate: Tmax [2, 9]: 8 min
- total grooming time, sucrose splash test ([6]; early intervention, 10 mg/kg i.p. x5, n=12): no effect
- latency to groom, sucrose splash test ([6]; early intervention, 10 mg/kg i.p. x5, n=12, vs mTBI+vehicle p<0.05, one-way ANOVA): effective in preventing the prolonged grooming latency
- latency to groom, sucrose splash test ([6]; late intervention, single 10 mg/kg i.p., n=11, vs sham or early TES2320 p<0.01): continued to exhibit increased grooming latency
- total grooming time, sucrose splash test ([6]; mouse, in vivo, ip, 10 mg/kg): significantly decreased the total grooming time
- functional potency at VPAC1 receptors [7]: picomolar functional potency

Source: publication doi:10.64898/2025.12.05.692609v2, “Early intervention with a PACAP lactoside following repetitive mild traumatic brain injury prevents persistent LHb hyperactivity and motivational deficits in male mice” (bioRxiv, 2025)
